# Source: patent US10150760B2, “Compounds for use in preparing heterocyclic triazole agonists of the APJ receptor” (AMGEN INC., priority 2016, dated 2018)
# Molecular target: human APJ receptor (Homo sapiens (Human), UniProt P35414)
# Experiment: [35S]GTPγS binding assay on membranes from CHO cells stably expressing human APJ receptor
# Format: biochemical
# Details: read-out: Activity hAPJ SPA EC50 IP
# How it was run: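 Membranes from CHO cells stably expressing human APJ incubated with ligand, 0.2 nM [35S]GTPγS and WGA SPA beads in HEPES pH 7.5 with 5 mM MgCl2, 200 mM NaCl, 3 μM GDP, 90 min at RT. Nonspecific binding defined with 100 μM GTPγS; EC50 by non-linear regression.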
# human APJ receptor, sequence (P35414 whole entry): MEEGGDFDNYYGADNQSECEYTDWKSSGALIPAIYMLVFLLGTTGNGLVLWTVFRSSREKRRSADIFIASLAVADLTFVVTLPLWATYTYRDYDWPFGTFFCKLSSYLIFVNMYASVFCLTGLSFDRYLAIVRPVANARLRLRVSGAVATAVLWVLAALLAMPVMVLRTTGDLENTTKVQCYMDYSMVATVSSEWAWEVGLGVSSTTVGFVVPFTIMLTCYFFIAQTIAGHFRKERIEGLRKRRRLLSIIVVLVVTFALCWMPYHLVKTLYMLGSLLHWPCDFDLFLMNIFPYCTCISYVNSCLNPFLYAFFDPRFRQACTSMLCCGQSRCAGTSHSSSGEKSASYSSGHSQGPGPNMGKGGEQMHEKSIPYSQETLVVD
row,Compound,EC50
1,"COc1cccc(OC)c1-n1c(NS(=O)(=O)[C@@H](C)[C@H](C)c2ccc(Cl)cn2)nnc1[C@@H]1COCCO1 (single isomer, unassigned) [Example 267.0, (2S,3R)-3-(5-chloropyridin-2-yl)-N-(4-(2,6-dimethoxyphenyl)-5-((R)-1,4-dioxan-2-yl)-4H-1,2,4-triazol-3-yl)butane-2-sulfonamide or (2S,3R)-3-(5-chloropyridin-2-yl)-N-(4-(2,6-dimethoxyphenyl)-5-((S)-1,4-dioxan-2-yl)-4H-1,2,4-triazol-3-yl)butane-2-sulfonamide]",2.1 nM
2,"COc1cccc(OC)c1-n1c(NS(=O)(=O)[C@@H](C)[C@@H](OC(C)C)c2cnc(C)cn2)nnc1[C@H]1CCCO1 (single isomer, unassigned) [Example 66.0]",6.9 nM
3,"COc1cccc(OC)c1-n1c(NS(=O)(=O)[C@@H](C)[C@H](OC)c2ncc(Cl)cn2)nnc1[C@H]1CCO[C@@H]1C (single isomer, unassigned) [Example 114.0, (1R,2S)-1-(5-chloropyrimidin-2-yl)-N-(4-(2,6-dimethoxyphenyl)-5-((2R,3R)-2-methyltetrahydrofuran-3-yl)-4H-1,2,4-triazol-3-yl)-1-methoxypropane-2-sulfonamide or (1R,2S)-1-(5-chloropyrimidin-2-yl)-N-(4-(2,6-dimethoxyphenyl)-5-((2S,3S)-2-methyltetrahydrofuran-3-yl)-4H-1,2,4-triazol-3-yl)-1-methoxypropane-2-sulfonamide]",110 nM
4,"COc1cccc(OC)c1-n1c(NS(=O)(=O)[C@@H](C)[C@H](C)c2cnc(C)cn2)nnc1[C@H]1CCCO1 (single isomer, unassigned) [Example 90.0, (2S,3R)-N-(4-(2,6-dimethoxyphenyl)-5-((S)-tetrahydrofuran-2-yl)-4H-1,2,4-triazol-3-yl)-3-(5-methylpyrazin-2-yl)butane-2-sulfonamide or (2S,3R)-N-(4-(2,6-dimethoxyphenyl)-5-((R)-tetrahydrofuran-2-yl)-4H-1,2,4-triazol-3-yl)-3-(5-methylpyrazin-2-yl)butane-2-sulfonamide]",370 nM
5,"COc1ncnc(OC)c1-n1c(NS(=O)(=O)[C@@H](C)[C@H](C)c2ccc(Cl)cn2)nnc1[C@H]1CCOC1 (single isomer, unassigned) [Example 38.0, (2S,3R)-3-(5-chloro-2-pyridinyl)-N-(4-(4,6-dimethoxy-5-pyrimidinyl)-5-((3R)-tetrahydro-3-furanyl)-4H-1,2,4-triazol-3-yl)-2-butanesulfonamide or (2S,3R)-3-(5-chloro-2-pyridinyl)-N-(4-(4,6-dimethoxy-5-pyrimidinyl)-5-((3S)-tetrahydro-3-furanyl)-4H-1,2,4-triazol-3-yl)-2-butanesulfonamide]",19 nM
6,"((2S,3R)-N-(4-(2,6-dimethoxyphenyl)-5-((R)-1,4-dioxan-2-yl)-4H-1,2,4-triazol-3-yl)-3-(5-methylpyrimidin-2-yl)butane-2-sulfonamide or (2S,3R)-N-(4-(2,6-dimethoxyphenyl)-5-((S)-1,4-dioxan-2-yl)-4H-1,2,4-triazol-3-yl)-3-(5-methylpyrimidin-2-yl)butane-2-sulfonamide [Example 206.0]",35 nM
7,"COc1cccc(OC)c1-n1c(NS(=O)(=O)[C@@H](C)[C@H](C)c2ncc(C)cn2)nnc1[C@@H]1CCCN(C)C1 (single isomer, unassigned) [Example 270.0, (2S,3R)-N-(4-(2,6-dimethoxyphenyl)-5-((R)-1-methylpiperidin-3-yl)-4H-1,2,4-triazol-3-yl)-3-(5-methylpyrimidin-2-yl)butane-2-sulfonamide or (2S,3R)-N-(4-(2,6-dimethoxyphenyl)-5-((S)-1-methylpiperidin-3-yl)-4H-1,2,4-triazol-3-yl)-3-(5-methylpyrimidin-2-yl)butane-2-sulfonamide]",410 nM
8,"COc1cccc(OC)c1-n1c(NS(=O)(=O)[C@@H](C)[C@@H](OC(C)C)c2ncc(C)cn2)nnc1[C@@H]1COC(C)(C)C1 (single isomer, unassigned) [Example 411.0, (1S,2S)-N-(4-(2,6-dimethoxyphenyl)-5-((3R)-5,5-dimethyltetrahydro-3-furanyl)-4H-1,2,4-triazol-3-yl)-1-(5-methyl-2-pyrimidinyl)-1-(2-propanyloxy)-2-propanesulfonamide or (1S,2S)-N-(4-(2,6-dimethoxyphenyl)-5-((3S)-5,5-dimethyltetrahydro-3-furanyl)-4H-1,2,4-triazol-3-yl)-1-(5-methyl-2-pyrimidinyl)-1-(2-propanyloxy)-2-propanesulfonamide]",86 nM
9,"COCCn1c(NS(=O)(=O)[C@@H](C)[C@H](OC)c2ncc(Cl)cn2)nnc1[C@@H]1COCCO1 (single isomer, unassigned) [Example 311.0, (1R,2S)-N-(5-((R)-1,4-dioxan-2-yl)-4-(2-methoxyethyl)-4H-1,2,4-triazol-3-yl)-1-(5-chloropyrimidin-2-yl)-1-methoxypropane-2-sulfonamide or (1R,2S)-N-(5-((S)-1,4-dioxan-2-yl)-4-(2-methoxyethyl)-4H-1,2,4-triazol-3-yl)-1-(5-chloropyrimidin-2-yl)-1-methoxypropane-2-sulfonamide]",1700 nM
10,"CO[C@H](c1ncc(Cl)cn1)[C@H](C)S(=O)(=O)Nc1nnc([C@@H]2COCCO2)n1C(C1CC1)C1CC1 (single isomer, unassigned) [Example 338.0, (1R,2S)-1-(5-chloro-2-pyrimidinyl)-N-(4-(dicyclopropylmethyl)-5-((2R)-1,4-dioxan-2-yl)-4H-1,2,4-triazol-3-yl)-1-methoxy-2-propanesulfonamide or (1R,2S)-1-(5-chloro-2-pyrimidinyl)-N-(4-(dicyclopropylmethyl)-5-((2S)-1,4-dioxan-2-yl)-4H-1,2,4-triazol-3-yl)-1-methoxy-2-propanesulfonamide]",110 nM
11,"(1R,2S)-N-(4-(2,6-dimethoxyphenyl)-5-((S)-tetrahydro-2H-pyran-3-yl)-4H-1,2,4-triazol-3-yl)-1-hydroxy-1-(5-methylpyrimidin-2-yl)propane-2-sulfonamide or (1R,2S)-N-(4-(2,6-dimethoxyphenyl)-5-((R)-tetrahydro-2H-pyran-3-yl)-4H-1,2,4-triazol-3-yl)-1-hydroxy-1-(5-methylpyrimidin-2-yl)propane-2-sulfonamide [Example 193.0]",180 nM
12,"COc1cccc(OC)c1-n1c(NS(=O)(=O)[C@@H](C)[C@@H](OC(C)C)c2ncc(Cl)cn2)nnc1[C@H]1CCC(C)(C)O1 (single isomer, unassigned) [Example 414.0, (1S,2S)-1-(5-chloro-2-pyrimidinyl)-N-(4-(2,6-dimethoxyphenyl)-5-((2R)-5,5-dimethyltetrahydro-2-furanyl)-4H-1,2,4-triazol-3-yl)-1-(2-propanyloxy)-2-propanesulfonamide or (1S,2S)-1-(5-chloro-2-pyrimidinyl)-N-(4-(2,6-dimethoxyphenyl)-5-((2S)-5,5-dimethyltetrahydro-2-furanyl)-4H-1,2,4-triazol-3-yl)-1-(2-propanyloxy)-2-propanesulfonamide]",1.2 nM
13,"(1R,2S)-1-(5-chloro-2-pyrimidinyl)-N-(4-(1,3-dimethoxy-2-propanyl)-5-((2S,5S)-5-methyltetrahydro-2-furanyl)-4H-1,2,4-triazol-3-yl)-1-methoxy-2-propanesulfonamide or (1R,2S)-1-(5-chloro-2-pyrimidinyl)-N-(4-(1,3-dimethoxy-2-propanyl)-5-((2R,5R)-5-methyltetrahydro-2-furanyl)-4H-1,2,4-triazol-3-yl)-1-methoxy-2-propanesulfonamide [Example 253.0]",6.3 nM
14,"(1R,2S)-1-(5-chloro-2-pyrimidinyl)-N-(4-(1,3-dimethoxy-2-propanyl)-5-((3S)-tetrahydro-3-furanyl)-4H-1,2,4-triazol-3-yl)-1-methoxy-2-propanesulfonamide or (1R,2S)-1-(5-chloro-2-pyrimidinyl)-N-(4-(1,3-dimethoxy-2-propanyl)-5-((3R)-tetrahydro-3-furanyl)-4H-1,2,4-triazol-3-yl)-1-methoxy-2-propanesulfonamide [Example 305.0]",740 nM
15,"(1R,2S)-1-(5-chloro-2-pyridinyl)-N-(4-(1,3-dimethoxy-2-propanyl)-5-((2R,5R)-5-methyltetrahydro-2-furanyl)-4H-1,2,4-triazol-3-yl)-1-methoxy-2-propanesulfonamide or (1R,2S)-1-(5-chloro-2-pyridinyl)-N-(4-(1,3-dimethoxy-2-propanyl)-5-((2S,5S)-5-methyltetrahydro-2-furanyl)-4H-1,2,4-triazol-3-yl)-1-methoxy-2-propanesulfonamide [Example 380.0]",60 nM
16,COc1cccc(OC)c1-n1c(NS(=O)(=O)[C@H](C)Cc2ncc(F)cn2)nnc1[C@H]1CCOC1 [Example 6.0],400 nM
17,"(2S,3R)-N-(4-(2,6-dimethoxyphenyl)-5-((R)-1,4-dioxan-2-yl)-4H-1,2,4-triazol-3-yl)-3-(5-methoxypyrazin-2-yl)butane-2-sulfonamide or (2S,3R)-N-(4-(2,6-dimethoxyphenyl)-5-((S)-1,4-dioxan-2-yl)-4H-1,2,4-triazol-3-yl)-3-(5-methoxypyrazin-2-yl)butane-2-sulfonamide [Example 208.0]",20 nM
18,"CO[C@H](c1ncc(Cl)cn1)[C@H](C)S(=O)(=O)Nc1nnc([C@@H]2CCCO2)n1-c1ccccc1F [Example 244.0, (1R,2S)-1-(5-chloro-2-pyrimidinyl)-N-(4-(2-fluorophenyl)-5-((2S)-tetrahydro-2-furanyl)-4H-1,2,4-triazol-3-yl)-1-methoxy-2-propanesulfonamide]",21 nM
